Tested on: 817829-284-R-J1-PDC complex spheroids, viability
Assay: Anticancer human tumor 817829-284-R-J1-PDC patient-derived colon adenocarcinoma cell line growth inhibition [GQUAD]
Settings: for IC50: curve of first compound; for viability, T/C: stronger effect = lower value; active means viability on the fitted dose curve at most 10% of control; inactive means the rest
Procedure, shortened: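 Multi-cell-type spheroids of tumor cells with HUVEC and mesenchymal stem cells, treated with drug combinations. Concentrations descend in half-log steps from near clinical Cmax, or from 10 microM where Cmax is unknown; viability read-out.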

[1] = second compound 0.0316 µM, first compound 0.000999 µM
[2] = second compound 0.0316 µM, first compound 0.00316 µM
[3] = second compound 0.0316 µM, first compound 0.00999 µM
[4] = second compound 0.0316 µM, first compound 0.0316 µM
[5] = second compound 0.0316 µM, first compound 0.0999 µM
[6] = second compound 0.0316 µM, first compound 0.316 µM
[7] = second compound 0.1 µM, first compound 0.000999 µM
[8] = second compound 0.1 µM, first compound 0.00316 µM
[9] = second compound 0.1 µM, first compound 0.00999 µM
[10] = second compound 0.1 µM, first compound 0.0316 µM
[11] = second compound 0.1 µM, first compound 0.0999 µM
[12] = second compound 0.1 µM, first compound 0.316 µM
[13] = second compound 0.316 µM, first compound 0.000999 µM
[14] = second compound 0.316 µM, first compound 0.00316 µM
[15] = second compound 0.316 µM, first compound 0.00999 µM
[16] = second compound 0.316 µM, first compound 0.0316 µM
[17] = second compound 0.316 µM, first compound 0.0999 µM
[18] = second compound 0.316 µM, first compound 0.316 µM
[19] = second compound 1 µM, first compound 0.000999 µM
[20] = second compound 1 µM, first compound 0.00316 µM
[21] = second compound 1 µM, first compound 0.00999 µM
[22] = second compound 1 µM, first compound 0.0316 µM
[23] = second compound 1 µM, first compound 0.0999 µM
[24] = second compound 1 µM, first compound 0.316 µM
[25] = second compound 3.16 µM, first compound 0.000999 µM
[26] = second compound 3.16 µM, first compound 0.00316 µM
[27] = second compound 3.16 µM, first compound 0.00999 µM
[28] = second compound 3.16 µM, first compound 0.0316 µM
[29] = second compound 3.16 µM, first compound 0.0999 µM
[30] = second compound 3.16 µM, first compound 0.316 µM
[31] = second compound 10 µM, first compound 0.000999 µM
[32] = second compound 10 µM, first compound 0.00316 µM
[33] = second compound 10 µM, first compound 0.00999 µM
[34] = second compound 10 µM, first compound 0.0316 µM
[35] = second compound 10 µM, first compound 0.0999 µM
[36] = second compound 10 µM, first compound 0.316 µM
[37] = second compound 0.0316 µM, first compound 0.1 µM
[38] = second compound 0.0316 µM, first compound 1 µM
[39] = second compound 0.0316 µM, first compound 3.16 µM
[40] = second compound 0.0316 µM, first compound 10 µM
[41] = second compound 0.1 µM, first compound 0.1 µM
[42] = second compound 0.1 µM, first compound 1 µM
[43] = second compound 0.1 µM, first compound 3.16 µM
[44] = second compound 0.1 µM, first compound 10 µM
[45] = second compound 0.316 µM, first compound 0.1 µM
[46] = second compound 0.316 µM, first compound 1 µM
[47] = second compound 0.316 µM, first compound 3.16 µM
[48] = second compound 0.316 µM, first compound 10 µM
[49] = second compound 1 µM, first compound 0.1 µM
[50] = second compound 1 µM, first compound 1 µM
[51] = second compound 1 µM, first compound 3.16 µM
[52] = second compound 1 µM, first compound 10 µM
[53] = second compound 3.16 µM, first compound 0.1 µM
[54] = second compound 3.16 µM, first compound 1 µM
[55] = second compound 3.16 µM, first compound 3.16 µM
[56] = second compound 3.16 µM, first compound 10 µM
[57] = second compound 10 µM, first compound 0.1 µM
[58] = second compound 10 µM, first compound 1 µM
[59] = second compound 10 µM, first compound 3.16 µM
[60] = second compound 10 µM, first compound 10 µM
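Further: spheroids exposed to agents for 7 days before readout.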
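Wherever viability, T/C is given: percent viability relative to DMSO vehicle control taken as 100%.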

Cn1ncnc1[C@H]1c2n[nH]c(=O)c3cc(F)cc(c23)N[C@@H]1c1ccc(F)cc1 + Cc1[nH]c2ccc(F)cc2c1-c1nc2c3cccnc3c3ncccc3c2[nH]1
> 316 nM: IC50 (second compound 0.0316 µM) | IC50 (second compound 0.1 µM) | IC50 (second compound 0.316 µM) | IC50 (second compound 1 µM)
inactive: viability, T/C [1] 93.8% | viability, T/C [2] 88.8% | viability, T/C [3] 95.5% | viability, T/C [4] 82.2% | viability, T/C [5] 96.1% | viability, T/C [6] 74.7% | viability, T/C [7] 93.5% | viability, T/C [8] 109% | viability, T/C [9] 94.5% | viability, T/C [10] 106% | viability, T/C [11] 89.2% | viability, T/C [12] 76.3% | viability, T/C [13] 83.9% | viability, T/C [14] 115% | viability, T/C [15] 102% | viability, T/C [16] 105% | viability, T/C [17] 86.5% | viability, T/C [18] 69.6% | viability, T/C [19] 82.6% | viability, T/C [20] 108% | viability, T/C [21] 116% | viability, T/C [22] 103% | viability, T/C [23] 80% | viability, T/C [24] 68.4% | viability, T/C [25] 89.1% | viability, T/C [26] 90.6% | viability, T/C [27] 87.5% | viability, T/C [28] 83.2% | viability, T/C [29] 54.6% | viability, T/C [30] 41.1% | viability, T/C [31] 69.3% | viability, T/C [32] 73.9% | viability, T/C [33] 76.3% | viability, T/C [34] 75.8% | viability, T/C [35] 44.3% | viability, T/C [36] 24.1%
148 nM: IC50 (second compound 3.16 µM)
79.9 nM: IC50 (second compound 10 µM)

CC[C@@]1(O)C(=O)OCc2c1cc1n(c2=O)Cc2cc3c(CN(C)C)c(O)ccc3nc2-1 + Cc1cnc(CNC(=O)c2c(=O)c3ccc(N4CCCN(C)CC4)nc3n3c2sc2ccccc23)cn1
active: viability, T/C [31] 0.08% | viability, T/C [32] 0.14% | viability, T/C [33] 0.19% | viability, T/C [34] 0.16% | viability, T/C [35] 0.22% | viability, T/C [36] 0.17%
9.66 nM: IC50 (second compound 0.0316 µM)
inactive: viability, T/C [1] 78.1% | viability, T/C [2] 61% | viability, T/C [3] 54.5% | viability, T/C [4] 33.9% | viability, T/C [5] 33.8% | viability, T/C [6] 28.5% | viability, T/C [7] 29.2% | viability, T/C [8] 37.9% | viability, T/C [9] 32.2% | viability, T/C [10] 31% | viability, T/C [11] 28% | viability, T/C [12] 23.1% | viability, T/C [13] 24.8% | viability, T/C [14] 26.8% | viability, T/C [15] 26.9% | viability, T/C [16] 25% | viability, T/C [17] 26% | viability, T/C [18] 20.5% | viability, T/C [19] 20.3% | viability, T/C [20] 24.9% | viability, T/C [21] 24.4% | viability, T/C [22] 22.9% | viability, T/C [23] 23.8% | viability, T/C [24] 22.6% | viability, T/C [25] 22.5% | viability, T/C [26] 21.7% | viability, T/C [27] 20.3% | viability, T/C [28] 19.2% | viability, T/C [29] 20% | viability, T/C [30] 16.1%
< 0.999 nM: IC50 (second compound 0.1 µM) | IC50 (second compound 0.316 µM) | IC50 (second compound 1 µM) | IC50 (second compound 3.16 µM) | IC50 (second compound 10 µM)

CC1COCCN1c1cc(C2(O)CC3CCC(C2)O3)c2cnn(-c3ccn[nH]3)c2n1 (stereo not drawn) + Cc1cnc(CNC(=O)c2c(=O)c3ccc(N4CCCN(C)CC4)nc3n3c2sc2ccccc23)cn1
inactive: viability, T/C [4] 12.8% | viability, T/C [10] 12.9% | viability, T/C [41] 10.7% | viability, T/C [16] 13.1% | viability, T/C [22] 12.2% | viability, T/C [28] 12.6%
active: viability, T/C [37] 9.62% | viability, T/C [6] 7.9% | viability, T/C [38] 5.56% | viability, T/C [39] 5.19% | viability, T/C [40] 3.22% | viability, T/C [12] 8.05% | viability, T/C [42] 5.97% | viability, T/C [43] 4.94% | viability, T/C [44] 2.88% | viability, T/C [45] 9.42% | viability, T/C [18] 6.75% | viability, T/C [46] 6.83% | viability, T/C [47] 4.09% | viability, T/C [48] 2.08% | viability, T/C [49] 11.2% | viability, T/C [24] 6.62% | viability, T/C [50] 5.07% | viability, T/C [51] 3.93% | viability, T/C [52] 1.59% | viability, T/C [53] 9.23% | viability, T/C [30] 6.99% | viability, T/C [54] 3.25% | viability, T/C [55] 0.81% | viability, T/C [56] 0.2% | viability, T/C [34] 0.05% | viability, T/C [57] 0.1% | viability, T/C [36] 0.14% | viability, T/C [58] 0.08% | viability, T/C [59] 0.14% | viability, T/C [60] 0.12%
< 31.6 nM: IC50 (second compound 0.0316 µM) | IC50 (second compound 0.1 µM) | IC50 (second compound 0.316 µM) | IC50 (second compound 1 µM) | IC50 (second compound 3.16 µM) | IC50 (second compound 10 µM)

C=CC(=O)N1CCN(c2nc(=O)n(-c3c(C)ccnc3C(C)C)c3nc(-c4c(O)cccc4F)c(F)cc23)C(C)C1 (stereo not drawn) + CN(C)c1ccc(Nc2c3ccc(NC(=O)CCN4CCCC4)cc3nc3cc(NC(=O)CCN4CCCC4)ccc23)cc1
> 10000 nM: IC50 (second compound 0.0316 µM) | IC50 (second compound 0.1 µM) | IC50 (second compound 0.316 µM) | IC50 (second compound 1 µM) | IC50 (second compound 3.16 µM)
7180 nM: IC50 (second compound 10 µM)
inactive: viability, T/C [4] 101% | viability, T/C [37] 103% | viability, T/C [6] 97.5% | viability, T/C [38] 99.4% | viability, T/C [39] 83.7% | viability, T/C [40] 80% | viability, T/C [10] 99.7% | viability, T/C [41] 103% | viability, T/C [12] 104% | viability, T/C [42] 98.7% | viability, T/C [43] 106% | viability, T/C [44] 85.4% | viability, T/C [16] 91.3% | viability, T/C [45] 107% | viability, T/C [18] 89.6% | viability, T/C [46] 108% | viability, T/C [47] 86.3% | viability, T/C [48] 76.2% | viability, T/C [22] 96.2% | viability, T/C [49] 107% | viability, T/C [24] 92.3% | viability, T/C [50] 105% | viability, T/C [51] 92.2% | viability, T/C [52] 72.1% | viability, T/C [28] 95.6% | viability, T/C [53] 97.5% | viability, T/C [30] 98.8% | viability, T/C [54] 92.3% | viability, T/C [55] 92.3% | viability, T/C [56] 69.3% | viability, T/C [34] 101% | viability, T/C [57] 105% | viability, T/C [36] 92.7% | viability, T/C [58] 92.3% | viability, T/C [59] 84.3% | viability, T/C [60] 36.4%

From PubChem BioAssay AID2060503 (Molecular Pharmacology Branch, DTP, NCI, 2025)
